Source: article PMC7059199, “Identification and structural insight of an effective PPARγ modulator with improved therapeutic index for anti-diabetic drug discovery” (Chemical Science, 2020)
“Also recorded” adds a separate entry of the source.

Legend:
3T3-L1 cells = assay: qPCR of adipogenic genes in 3T3-L1 cells; assay type: cell-based, mouse; settings: 7 days after treatment
Description: Encouraged by the above results and to further determine whether VSP-77 activates PPARγ in 3T3-L1 cells, we evaluated the ability of VSP-77 to stimulate PPARγ activity by measuring the mRNA levels of endogenous PPARγ-regulated downstream genes linked to adipogenesis (primers are listed in Table S1 ^†).
Fig. 7 Expression of adipogenic genes in 3T3-L1 cells was analyzed by quantitative PCR (qPCR). Relative mRNA levels of the adipocyte differentiation genes PPARγ, aP2, CD36, LPL, C/EBPα and Fasn. mRNA was extracted from differentiating cells 7 days after treatment (n = 3, error bars = SEM). […]
(average±standard deviation calculated from three separate experiments). […]
Cells were stained with Oil Red O to estimate the lipid accumulation. The images were analyzed using ImageJ (National Institutes of Health).
For real-time PCR analysis, 1-2 μg total RNA was reverse-transcribed using the SuperScript cDNA Reverse Transcription Kit (Invitrogen) with SYBR Green PCR Master Mix (Invitrogen) and gene specific primers (Table S1) using a Roche Light Cycler 480 machine. The relative expression of mRNA was determined after normalization to β-actin level using the ΔΔ-Ct method. […]

PPARα = target: T1, PPARα (Homo sapiens, UniProt Q07869); assay: Competitive TR-FRET assay, PPARα; settings: even at 100 μM
T1 sequence (Q07869 1-468): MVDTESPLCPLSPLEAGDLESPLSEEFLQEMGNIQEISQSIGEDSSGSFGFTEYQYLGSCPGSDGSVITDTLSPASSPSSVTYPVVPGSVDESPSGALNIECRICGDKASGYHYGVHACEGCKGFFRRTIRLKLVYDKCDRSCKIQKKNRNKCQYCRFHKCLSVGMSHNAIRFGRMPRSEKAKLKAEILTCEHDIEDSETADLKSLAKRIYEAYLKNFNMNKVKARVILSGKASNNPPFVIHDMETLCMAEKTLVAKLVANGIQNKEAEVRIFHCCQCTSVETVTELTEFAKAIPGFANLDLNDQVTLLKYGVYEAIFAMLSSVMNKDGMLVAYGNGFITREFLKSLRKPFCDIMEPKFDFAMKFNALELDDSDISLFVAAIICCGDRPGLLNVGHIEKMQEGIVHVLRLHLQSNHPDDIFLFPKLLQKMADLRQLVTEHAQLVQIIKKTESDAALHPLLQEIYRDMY

GST-PPARγ LBD = target: T2, GST-PPARγ LBD (Homo sapiens, UniProt P37231); assay: LanthaScreen TR-FRET competitive binding assay, PPARγ
T2 construct: 0.5 nM GST-PPARγ LBD was incubated with 5 nM Fluormone™; purchased Invitrogen
T2 sequence (P37231 238-503 limits assumed): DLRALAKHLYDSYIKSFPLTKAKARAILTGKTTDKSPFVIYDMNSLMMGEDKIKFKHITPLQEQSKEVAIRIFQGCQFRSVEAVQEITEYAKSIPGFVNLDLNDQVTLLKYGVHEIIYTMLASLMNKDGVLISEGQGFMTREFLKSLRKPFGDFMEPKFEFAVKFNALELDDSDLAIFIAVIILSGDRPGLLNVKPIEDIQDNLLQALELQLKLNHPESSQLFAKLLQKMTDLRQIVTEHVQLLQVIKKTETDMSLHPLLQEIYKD
Description: LanthaScreen™ TR-FRET assay (Invitrogen) was used for measuring the binding affinities of the ligands. 0.5 nM GST-PPARγ LBD was incubated with 5 nM Fluormone™ and Terbium-coated GST antibody.
Competitive TR -FRET binding assay
The GST PPARγ -LBD was labeled with a terbium-linked antibody and a fluorescent small molecule pan-PPAR ligand (Fluormone™ Pan-PPAR Green, Invitrogen) was used as a tracer that is displaced from the ligand binding domain upon agonist binding.
Excitation of the terbium at 340 nm results in FRET to the fluorescent tracer, with
Tracer displacment results is a loss of FRET signal between the terbium label and the fluorescent tracer.
The inhibition constant (ki) for a competitor was calculated by applying the
Cheng-Prusoff equation as following:
the tracer, [tracer] is the concentration of Fluormone™ Pan-PPAR Green used in the

[1] = target: hERG potassium ion channel (Homo sapiens, UniProt Q12809); assay: Inhibition assay on the hERG potassium ion channel
[2] = Pharmacokinetic profile in mice; assay type: in vivo
Description: VSP-77 was further evaluated for its preliminary pharmacokinetic profile in mice following oral (10 mg kg^–1) and intravenous (5 mg kg^–1) administration (Table S2 ^†).

[3] = mouse, in vivo, intravenous 5 mg/kg
[4] = mouse, in vivo, oral (ig) 10 mg/kg
[5] = oral 10 mg/kg, unit as printed in main text

Chain of hERG potassium ion channel (Q12809 whole entry): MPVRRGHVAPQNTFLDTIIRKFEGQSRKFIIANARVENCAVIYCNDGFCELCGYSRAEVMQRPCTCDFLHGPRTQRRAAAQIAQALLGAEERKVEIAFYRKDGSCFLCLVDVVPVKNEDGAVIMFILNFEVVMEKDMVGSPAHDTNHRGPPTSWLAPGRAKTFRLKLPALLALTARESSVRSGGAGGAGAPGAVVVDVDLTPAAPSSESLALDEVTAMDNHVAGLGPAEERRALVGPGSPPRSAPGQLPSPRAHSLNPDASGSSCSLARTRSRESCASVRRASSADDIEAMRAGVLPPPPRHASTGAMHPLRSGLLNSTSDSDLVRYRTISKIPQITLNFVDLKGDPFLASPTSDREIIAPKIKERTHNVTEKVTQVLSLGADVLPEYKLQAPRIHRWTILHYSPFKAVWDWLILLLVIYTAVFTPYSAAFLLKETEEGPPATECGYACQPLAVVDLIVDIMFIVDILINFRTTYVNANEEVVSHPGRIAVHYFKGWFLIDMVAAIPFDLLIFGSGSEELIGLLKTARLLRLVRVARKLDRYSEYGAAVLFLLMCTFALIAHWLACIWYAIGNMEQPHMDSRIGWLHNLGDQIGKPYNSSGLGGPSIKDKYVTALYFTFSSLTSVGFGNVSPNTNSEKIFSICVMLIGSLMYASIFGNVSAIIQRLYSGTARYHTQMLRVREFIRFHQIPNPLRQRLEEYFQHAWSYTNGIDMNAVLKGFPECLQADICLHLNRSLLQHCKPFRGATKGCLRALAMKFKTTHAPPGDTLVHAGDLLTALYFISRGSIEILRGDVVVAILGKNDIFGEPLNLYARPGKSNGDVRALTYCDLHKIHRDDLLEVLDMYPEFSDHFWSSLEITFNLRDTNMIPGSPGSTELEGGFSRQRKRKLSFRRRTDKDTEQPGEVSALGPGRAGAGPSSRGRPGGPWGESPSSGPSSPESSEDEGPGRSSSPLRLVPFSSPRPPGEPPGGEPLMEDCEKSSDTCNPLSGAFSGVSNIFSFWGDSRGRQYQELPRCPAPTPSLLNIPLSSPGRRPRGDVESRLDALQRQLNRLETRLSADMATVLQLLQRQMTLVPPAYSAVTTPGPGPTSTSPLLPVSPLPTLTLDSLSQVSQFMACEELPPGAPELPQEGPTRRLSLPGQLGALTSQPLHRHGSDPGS

effect on PPARα (in words) (PPARα): no obvious effects | binding to PPARγ (in words) (GST-PPARγ LBD; at 10 μM): potent binding affinity | Ki (GST-PPARγ LBD; competition of Fluormone (5 nM), 0.5 nM GST-PPARγ LBD): 4.8 µM | binding affinity for PPARγ relative to DA (GST-PPARγ LBD; higher than DA): about 10 fold | AUC(0-inf) [2, 3]: 5030 ng·h/mL | AUC(0-t) [2, 3]: 5000 ng·h/mL | MRT [2, 3]: 1.11 h | half-life [2, 3]: 1.07 h | AUC(0-inf) [2, 4]: 5880 ng·h/mL | AUC(0-t) [2, 4]: 5770 ng·h/mL | Cmax [2, 4]: 2920 ng/mL | MRT [2, 4]: 1.94 h | Tmax [2, 4]: 0.5 h | half-life [2, 4]: 1.25 h | bioavailability ([2]; mouse, in vivo, oral (ig) 10 mg/kg vs iv 5 mg/kg, read-out: F (oral bioavailability)): 57.7% | AUC0–t [2, 5]: 5772 ng mL^–1 h^–1 | AUC0–∞ [2, 5]: 5877 ng mL^–1 h^–1
SMILES: CCCCCCCC(OCC(=O)O)c1ccc(Cl)cc1 (centres unmarked) [VSP-77]
expression of adipogenic genes PPARγ, aP2, CD36, LPL, C/EBPα and Fasn (mRNA) (3T3-L1 cells): only weakly stimulated | IC50 [1]: > 50 µM | hERG inhibition (in words) ([1]; even at 50 μM): no obvious inhibition; also recorded: no detectable hERG inhibition
